Measured values taken from US20260125382A1, “COMPOUNDS FOR INHIBITING OR DEGRADING CDK2 AND/OR CDK9 AND MEDICINAL USE THEREOF” (KOREA RESEARCH INSTITUTE OF CHEMICAL TECHNOLOGY, priority 2022, published 2026).

Key:
CDK2 = target: T1, CDK2 (Homo sapiens, UniProt P24941); assay: CDK protein degradation activity (Western blotting), CDK2; type: cell-based; settings: MDA-MB-231 cells, 16 hours, Western blot
T1 construct: endogenous in cells; host or cells: MDA-MB-231
Experimental: (§1) In order to evaluate the CDK protein degradation activity of the compounds according to the present invention, the following experiment was conducted.
(§2) MDA-MB-231 cells were seeded at 5×10^5 cells per well in a 6-well plate. The next day, the compounds were treated in each well to achieve final concentrations of 100 nM, 1 μM, and 10 μM. For the control group, an equal amount of DMSO was treated in the well as the compound. After 16 hours of treatment, cells were collected, and cell lysates were prepared using Triton X-100 lysis buffer (50 mM HEPES, pH 7.5, 40 mM NaCl, 1% Triton X-100, 1 mM EDTA, 1 mM EGTA, 10 mM pyrophosphate, 10 mM β-glycerophosphate, 50 mM NaF, 1 mM NaVO4, protease inhibitor). Cell lysates were quantified and separated by size using sodium dodecyl sulfate-polyacrylamide gel electrophoresis (SDS-PAGE). Western blotting was then performed using antibodies that recognize CDK2, CDK9, and tubulin, respectively. The results obtained by Western blotting were quantitatively analyzed using the ImageJ program, and representative images according to the experimental results are shown in FIG. 1.

CDK9 = target: T2, CDK9 (Homo sapiens, UniProt P50750); assay: CDK protein degradation activity (Western blotting), CDK9; type: cell-based; settings: MDA-MB-231 cells, 16 hours, Western blot
T2 construct: endogenous in cells; host or cells: MDA-MB-231
Experimental: as §1, §2

T2 sequence (P50750 whole entry): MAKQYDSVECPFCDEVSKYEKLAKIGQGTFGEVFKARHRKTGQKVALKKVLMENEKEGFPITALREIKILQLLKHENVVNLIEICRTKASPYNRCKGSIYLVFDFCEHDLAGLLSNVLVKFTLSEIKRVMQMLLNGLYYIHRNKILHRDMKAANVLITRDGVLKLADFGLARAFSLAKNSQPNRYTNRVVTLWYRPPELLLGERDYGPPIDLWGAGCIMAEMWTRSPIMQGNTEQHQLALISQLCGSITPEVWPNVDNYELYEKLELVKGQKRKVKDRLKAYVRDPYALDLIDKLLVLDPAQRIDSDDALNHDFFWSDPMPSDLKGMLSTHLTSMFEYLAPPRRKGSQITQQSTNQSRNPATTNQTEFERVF

SMILES	Enzyme degradation CDK2 (% remaining) @ 0.1 μM (CDK2)	Enzyme degradation CDK2 (% remaining) @ 1 μM (CDK2)	Enzyme degradation CDK2 (% remaining) @ 10 μM (CDK2)	Enzyme degradation CDK9 (% remaining) @ 0.1 μM (CDK9) [%]	Enzyme degradation CDK9 (% remaining) @ 1 μM (CDK9) [%]	Enzyme degradation CDK9 (% remaining) @ 10 μM (CDK9) [%]
Cc1cccc(C(=O)N[C@H]2C[C@@H](n3cnc4c(NC5CCN(CCOC6CCN(c7ccc8c(c7)C(=O)N([C@H]7CCC(=O)NC7=O)C8=O)CC6)CC5)ncnc43)C2)n1 [Compound 47, N-((1s,3s)-3-(6-((1-(2-((1-(2-(2,6-dioxopiperidin-3-yl)-1,3-dioxoisoindolin-5-yl)piperidin-4-yl)oxy)ethyl)piperidin-4-yl)amino)-9H-purin-9-yl)cyclobutyl)-6-methylpicolinamide]	100/100/100%	100/100/100%	100/100/100%	40	0	0
Cc1cccc(C(=O)NC2CC(n3cnc4c(NC5CCN(CCOC6CCN(c7cccc8c7C(=O)N([C@H]7CCC(=O)NC7=O)C8=O)CC6)CC5)ncnc43)C2)n1 (stereo partly drawn) [Compound 48, N-((1s,3s)-3-(6-((1-(2-((1-(2-(2,6-dioxopiperidin-3-yl)-1,3-dioxoisoindolin-4-yl)piperidin-4-yl)oxy)ethyl)piperidin-4-yl)amino)-9H-purin-9-yl)cyclobutyl)-6-methylpicolinamide]	100/100/100%	100/100/100%	100/100/100%	50	20	20
Cc1cccc(C(=O)N[C@H]2C[C@@H](n3cnc4c(NC5CCN(C(=O)CC6CCN(C(=O)COc7cccc8c7C(=O)N([C@H]7CCC(=O)NC7=O)C8=O)CC6)CC5)ncnc43)C2)n1 [Compound 50, N-((1s,3s)-3-(6-((1-(2-(1-(2-((2-(2,6-dioxopiperidin-3-yl)-1,3-dioxoisoindolin-4-yl)oxy)acetyl)piperidin-4-yl)acetyl)piperidin-4-yl)amino)-9H-purin-9-yl)cyclobutyl)-6-methylpicolinamide]	80%	40%	10%	90	60	20
Cc1cccc(C(=O)NC2CC(n3cnc4c(NC5CCN(C(=O)CC6CCN(C(=O)CNc7ccc8c(c7)C(=O)N([C@H]7CCC(=O)NC7=O)C8=O)CC6)CC5)ncnc43)C2)n1 (stereo partly drawn) [Compound 51, N-((1s,3s)-3-(6-((1-(2-(1-((2-(2,6-dioxopiperidin-3-yl)-1,3-dioxoisoindolin-5-yl)glycyl)piperidin-4-yl)acetyl)piperidin-4-yl)amino)-9H-purin-9-yl)cyclobutyl)-6-methylpicolinamide]	70%	20%	20%	70	0	0
Cc1cccc(C(=O)NC2CC(n3cnc4c(NC5CCN(C(=O)CC6CCN(C(=O)CNc7cccc8c7C(=O)N([C@H]7CCC(=O)NC7=O)C8=O)CC6)CC5)ncnc43)C2)n1 (stereo partly drawn) [Compound 52, N-((1s,3s)-3-(6-((1-(2-(1-((2-(2,6-dioxopiperidin-3-yl)-1,3-dioxoisoindolin-4-yl)glycyl)piperidin-4-yl)acetyl)piperidin-4-yl)amino)-9H-purin-9-yl)cyclobutyl)-6-methylpicolinamide]	40%	40%	50%	70	30	10
Cc1cccc(C(=O)NC2CC(n3cnc4c(NC5CCN(C(=O)CC6CCN(c7ccc8c(c7)C(=O)N([C@H]7CCC(=O)NC7=O)C8=O)CC6)CC5)ncnc43)C2)n1 (stereo partly drawn) [Compound 53, N-((1s,3s)-3-(6-((1-(2-(1-(2-(2,6-dioxopiperidin-3-yl)-1,3-dioxoisoindolin-5-yl)piperidin-4-yl)acetyl)piperidin-4-yl)amino)-9H-purin-9-yl)cyclobutyl)-6-methylpicolinamide]	90%	80%	70%	90	90	10
Cc1cccc(C(=O)N[C@H]2C[C@H](n3cnc4c(NCC5CCN(CC6CCN(C(=O)CNc7cccc8c7C(=O)N(C7CCC(=O)NC7=O)C8=O)CC6)CC5)ncnc43)C2)n1 (stereo partly drawn) [Compound 75, N-((1r,3r)-3-(6-(((1-((1-((2-(2,6-dioxopiperidin-3-yl)-1,3-dioxoisoindolin-4-yl)glycyl)piperidin-4-yl)methyl)piperidin-4-yl)methyl)amino)-9H-purin-9-yl)cyclobutyl)-6-methylpicolinamide]	20%	10%	30%	0	0	10
Cc1cccc(C(=O)NC2CC(n3cnc4c(NCC5CCN(CC6CCN(c7ccc8c(c7)C(=O)N([C@@H]7CCC(=O)NC7=O)C8=O)CC6)CC5)ncnc43)C2)n1 (stereo partly drawn) [Compound 76, N-((1r,3r)-3-(6-(((1-((1-(2-(2,6-dioxopiperidin-3-yl)-1,3-dioxoisoindolin-5-yl)piperidin-4-yl)methyl)piperidin-4-yl)methyl)amino)-9H-purin-9-yl)cyclobutyl)-6-methylpicolinamide]	100/100/100%	100/100/100%	100/100/100%	30	20	10
Cc1cccc(C(=O)NC2CC(n3cnc4c(Nc5ccc(N6CCN(C(=O)COc7ccc8c(c7)C(=O)N([C@H]7CCC(=O)NC7=O)C8=O)CC6)cc5)ncnc43)C2)n1 (stereo partly drawn) [Compound 84, N-((1s,3s)-3-(6-((4-(4-(2-((2-(2,6-dioxopiperidin-3-yl)-1,3-dioxoisoindolin-5-yl)oxy)acetyl)piperazin-1-yl)phenyl)amino)-9H-purin-9-yl)cyclobutyl)-6-methylpicolinamide]	50%	30%	20%	70	30	10
Cc1cccc(C(=O)NC2CC(n3cnc4c(Nc5ccc(N6CCN(C(=O)COc7cccc8c7C(=O)N([C@H]7CCC(=O)NC7=O)C8=O)CC6)cc5)ncnc43)C2)n1 (stereo partly drawn) [Compound 85, N-((1s,3s)-3-(6-((4-(4-(2-((2-(2,6-dioxopiperidin-3-yl)-1,3-dioxoisoindolin-4-yl)oxy)acetyl)piperazin-1-yl)phenyl)amino)-9H-purin-9-yl)cyclobutyl)-6-methylpicolinamide]	70%	60%	50%	60	40	30
Cc1cccc(C(=O)N[C@H]2C[C@@H](n3cnc4c(Nc5ccc(N6CCN(C(=O)CNc7cccc8c7C(=O)N([C@H]7CCC(=O)NC7=O)C8=O)CC6)cc5)ncnc43)C2)n1 [Compound 87, N-((1s,3s)-3-(6-((4-(4-((2-(2,6-dioxopiperidin-3-yl)-1,3-dioxoisoindolin-4-yl)glycyl)piperazin-1-yl)phenyl)amino)-9H-purin-9-yl)cyclobutyl)-6-methylpicolinamide]	90%	70%	50%	50	50	40
